# Reference: US6468541B2, “Natural, non-allergenic, immune system stimulant” (Chinese Herbal USA, Inc., priority 2000, dated 2002)
# Assays:
# normal PBMC = conditions: glycyrrhizin alone; cited from earlier work
# [1] = system: peripheral blood mononuclear cells (PBMC); assay: IL-1β secretion by PBMC incubated 72 h with Immune+™ with or without PHA, ELISA (Example 2); assay type: cell-based, human; conditions: PHA alone, 10 μg/ml
# Experimental: (§1) Ten mg of Immune+™ was suspended in 1 ml RPMI-1640 with 10% heat inactivated fetal bovine serum (media). The suspension was shaken vigorously on a vortex mixer. The insoluble components were quickly pelleted and the remaining suspension filtered twice: first through a 0.45 micron syringe filter followed by a 0.2 micron syringe filter. This filtrate was used as our stock (approx. 10 mg/ml) from which dilutions were made for the incubations with PBMC. The stock solution was diluted in media prior to treatment with PBMC.
# (§2) Volunteers of various ethnic backgrounds and ranging in age from 18-35 years, participated in this study. […] Viability was determined by trypan blue exclusion and was consistently >96%. […]
# (§3) Aliquots of culture supernates were frozen immediately upon harvest and stored at −20° C. until analysis by ELISA. Concentrations of IL-1 β and IFN-γ were determined using the DuoSet® ELISA Development System (R & D Systems, Minneapolis, Minn.) with a detection limit of 3.9 and 15.6 pg/ml respectively.
# (§4) The effects of various concentrations of Immune+™ on IL-1β and IFN-γ production in either unstimulated or PHA-stimulated PBMC were analyzed using a one-way ANOVA followed by post-hoc Tukey comparison. […]
# (§5) The concentrations of IL-1β and IFN-γ in the supernate were measured by ELISA.
# [2] = system: peripheral blood mononuclear cells (PBMC); assay: IFN-γ secretion by PBMC incubated 72 h with Immune+™ with or without PHA, ELISA (Example 2); assay type: cell-based, human; conditions: PHA alone, 10 μg/ml
# Experimental: as §1, §2, §3, §4, §5
Compound,IFN-γ production (normal PBMC),IL-1β production [1],IFN-γ production [2]
"CC1(C)[C@@H](O[C@H]2O[C@H](C(=O)O)[C@@H](O)[C@H](O)[C@H]2O[C@@H]2O[C@H](C(=O)O)[C@@H](O)[C@H](O)[C@H]2O)CC[C@]2(C)[C@H]3C(=O)C=C4[C@@H]5C[C@@](C)(C(=O)O)CC[C@]5(C)CC[C@@]4(C)[C@]3(C)CC[C@@H]12 [glycyrrhizin, 20β-carboxy-11-oxo-30-norolean-12-en-3 βyl-2-O-β-D-glucopyranuronosyl-α-D-glucopyranosiduronic acid]",did not markedly alter,–,–
phytohemagglutinin [PHA],–,no effect,resulted in a production of IFN-γ
